The target in assay [1] is memapsin 2 (Homo sapiens, UniProt P56817). The experiment in a line: Inhibition of memapsin 2 beta-secretase activity (fluorogenic substrate FS-2). Type of assay: biochemical. The following applies: pH 4, 37° C., read-out: M2 Ki. How it is done: Potency of compounds were determined by measurement of their inhibition of memapsin 2 activity toward a fluorescent substrate. Kinetic inhibition experiments were performed using the procedure as described in Ermolieff, et al. (Biochemistry 39:12450-12456 (2000), the teachings of which are incorporated hereby in their entirety). Briefly, assays were performed at pH 4, 37° C., by pre-incubation of memapsin 2 enzyme with compound for 20 minutes. Activity measurements were initiated by addition of a fluorogenic substrate FS-2 (Bachem Americas, Torrance, Calif.) MCA-SEVNLDAEFR-DNP (SEQ ID NO.: 2). The substrate was derived from 10 amino acids of the human amyloid precursor protein (APP), with the Swedish variant amino acids at the beta-secretase cleavage site. The terminal amino acid was modified from arginine to lysine to facilitate derivatization with a functional group for detection by autofluorescence. The amino acid sequence of the “core” peptide of the substrate is SEVNLDAEFK (SEQ ID NO.: 3). The amino terminus was derivatized with (7-methoxycoumarin-4-yl)acetyl (MCA), and the epsilon amine of the lysine side chain of the terminal residue (K in sequence SEVNLDAEFK (SEQ ID NO.: 3)) was derivatized with 2,4-dinitorphenyl (DNP).

Assay [2] concerns the target T1, memapsin 2 (Cricetulus griseus, UniProt G3IAK4).
T1 construct: endogenous in cells; host or cells: Chinese hamster ovary cells over-expressing human APP695 (London + Swedish)
The experiment in a line: Cellular Aβ IC50 determination (Aβ40 sandwich ELISA). Type of assay: cell-based, Chinese hamster. The following applies: CHO cells over-expressing human APP695 with London and Swedish mutations, 24 h, read-out: M2 IC50. How it is done: The potency of compounds against memapsin 2 activity was determined in a cellular assay of Aβ production. […] Chinese hamster ovary cells that over-express human APP695 with the London and Swedish mutations were seeded in multi-well plates at 10% confluency. Compounds are dissolved in DMSO to concentrations near 1 mM, and diluted into culture media to a final concentration near 4 μM (final 0.4% DMSO). Compounds were diluted serially and applied to cells in multi-well plates 48 h after seeding. Incubation was continued in 5% CO2 at 37° C. for 24 h. Aliquots were removed and assayed for […] using a sandwich ELISA (BioSource International). Amount of Aβ40 over the range of concentration of compounds, relative to control incubations, were fit to a 4-parameter IC50 model.
(In an ELISA, binding on a coated surface is turned into a signal by an enzyme label.)

The target in another assay is T2, CYP3A4 (Homo sapiens, UniProt P08684).
T2 construct: host or cells: human liver microsomes
The experiment in a line: CYP3A4 inhibition (midazolam metabolism in human liver microsomes). The format is in vitro ADME. The following applies: substrate midazolam, read-out: CYP 3A4Ki. The method, then: To evaluate the drug-drug interaction potential for compounds, the potency to inhibit the major metabolic cytochrome CYP450 isoform 3A4 was assessed. The inhibition constant Ki was determined for inhibition of the metabolism of midazolam, a CYP3A4 substrate.
CYP3A4 Ki assays were performed following a recently published protocol with slight modifications (Di, L., Kerns, E. H., Li, S. Q., and Carter, G. T. (2007) Comparison of cytochrome P450 inhibition assays for drug discovery using human liver microsomes with LC-MS, rhCYP450 isozymes with fluorescence, and double cocktail with LC-MS. International Journal of Pharmaceutics 335: 1-11). The P450 inhibition assay was performed in 96-well plates at 37.2° C. in a shaking incubator. The compounds were diluted from 5 mM stocks in 100% DMSO and incubated at seven final concentrations from 0.078 to 10 μM (0.1% DMSO in each final incubation), with human liver microsomes (HLM) at a final protein concentration of 0.1 mg/mL protein and a substrate concentration ranging from 1.25 to 10 μM.
The assay was standardized for both phosphate buffer (100 mM, pH 7.4) and the NADPH regenerating system (MgCl2, 3.3 mM; G6P, 3.3 mM; G6PD, 1 U/ml; NADP+, 1.3 mM). Eight replicate control samples (0.1% DMSO, no compound) were prepared. Assays (200 μL) were set up by mixing HLM+substrate stock, 10 μL of test article in 2% DMSO, and the substrate before initiating the reaction with the addition of the regenerating system mixture. Reactions were quenched following incubation for 20, 30 and 40 minutes as described following.
After incubation for the specified time in a humidified shaking incubator, 20 μL of the reaction mixture was removed and the reactions were terminated by adding 200 μL of cold acetonitrile. Samples were centrifuged at 1000×g for 15 minutes in Solvinert filter plate. The receptor plate was dried via speed vacuum at 40° C. The sample was reconstituted with a reconstitution buffer composed of 10% acetonitrile, 10% DMSO, 80% H2O with an internal standard added at a concentration of 100 ng/ml. MS-Analysis was completed using LC-MS/MS. Formation of 1′-hydroxymidazolam was measured by monitoring a specific SRM (342>203) transition for the CYP3A4 metabolite.
Data were expressed as the relative quantity of midazolam metabolite relative to control incubations. Initial velocities were obtained by multiplying the relative quantity by the initial substrate concentration and dividing by the incubation duration. Data were transformed to inverse of inivital velocity and expressed vs. inhibitor concentration [I] for determination of Ki by the Dixon method (Dixon, M. (1953) Biochemical Journal 55: 170-171) using where intercept [I]=−Ki was determined at multiple substrate concentrations.
On the technique in general: Liver microsomes are vesicles of endoplasmic reticulum, rich in cytochrome P450 enzymes.

memapsin 2 (Homo sapiens, UniProt P56817), sequence (P56817 46-501): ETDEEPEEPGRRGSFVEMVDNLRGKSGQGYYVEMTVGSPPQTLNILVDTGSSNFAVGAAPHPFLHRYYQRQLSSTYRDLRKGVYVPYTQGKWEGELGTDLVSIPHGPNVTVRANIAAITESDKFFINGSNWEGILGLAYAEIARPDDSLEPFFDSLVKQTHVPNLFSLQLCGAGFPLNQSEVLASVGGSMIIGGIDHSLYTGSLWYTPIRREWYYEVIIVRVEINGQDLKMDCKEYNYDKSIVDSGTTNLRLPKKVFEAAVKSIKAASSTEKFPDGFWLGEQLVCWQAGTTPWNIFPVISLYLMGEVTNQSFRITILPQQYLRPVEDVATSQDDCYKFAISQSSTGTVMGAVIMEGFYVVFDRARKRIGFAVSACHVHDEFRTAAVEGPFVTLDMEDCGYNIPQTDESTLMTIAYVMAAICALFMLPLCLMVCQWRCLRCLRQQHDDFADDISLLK
T1 sequence (G3IAK4 22-501): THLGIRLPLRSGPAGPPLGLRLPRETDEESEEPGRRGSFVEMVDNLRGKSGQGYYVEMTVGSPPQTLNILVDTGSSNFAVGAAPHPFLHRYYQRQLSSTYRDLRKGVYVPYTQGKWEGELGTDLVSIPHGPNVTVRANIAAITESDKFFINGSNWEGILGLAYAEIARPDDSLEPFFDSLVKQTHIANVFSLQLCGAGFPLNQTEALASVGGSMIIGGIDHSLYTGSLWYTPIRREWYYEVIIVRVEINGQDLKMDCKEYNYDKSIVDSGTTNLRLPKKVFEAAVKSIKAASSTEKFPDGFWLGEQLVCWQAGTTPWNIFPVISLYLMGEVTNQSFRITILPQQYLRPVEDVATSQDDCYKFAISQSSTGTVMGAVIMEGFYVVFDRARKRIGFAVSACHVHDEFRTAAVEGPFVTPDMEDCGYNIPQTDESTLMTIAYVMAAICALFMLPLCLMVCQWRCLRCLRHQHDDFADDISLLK
T2 sequence (P08684 whole entry): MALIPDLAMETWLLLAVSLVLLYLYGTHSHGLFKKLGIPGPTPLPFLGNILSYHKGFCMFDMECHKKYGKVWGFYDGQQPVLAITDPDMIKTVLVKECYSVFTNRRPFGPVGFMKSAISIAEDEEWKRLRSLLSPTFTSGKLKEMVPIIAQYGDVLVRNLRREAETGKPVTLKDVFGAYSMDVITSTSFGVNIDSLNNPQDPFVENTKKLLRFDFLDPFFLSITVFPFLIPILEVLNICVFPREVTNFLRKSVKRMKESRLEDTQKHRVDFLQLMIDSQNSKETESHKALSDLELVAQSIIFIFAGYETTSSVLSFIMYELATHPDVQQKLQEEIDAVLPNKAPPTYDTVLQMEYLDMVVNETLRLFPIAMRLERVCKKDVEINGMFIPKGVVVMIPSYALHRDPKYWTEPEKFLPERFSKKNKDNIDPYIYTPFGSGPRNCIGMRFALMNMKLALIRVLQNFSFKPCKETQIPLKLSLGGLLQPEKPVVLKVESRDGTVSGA

As to `Cc1csc([C@H]2CCCN2C(=O)c2cc(C(=O)N[C@@H](Cc3ccccc3)[C@H](O)[C@H]3CCCN3)cc(-c3cnccn3)c2)n1` [1-20, N-((1R,2S)-1-hydroxy-3-phenyl-1-((R)-pyrrolidin-2-yl)propan-2-yl)-3-((R)-2-(4-methylthiazol-2-yl)pyrrolidine-1-carbonyl)-5-(pyrazin-2-yl)benzamide], the Ki is under 250 nM at memapsin 2 [1] and over 10000 nM on CYP3A4. The IC50 (usually the concentration needed to halve the response being measured) at memapsin 2 [2] was under 500 nM.
For `Cc1coc([C@H]2CCCN2C(=O)c2cc(C(=O)N[C@@H](Cc3ccccc3)[C@H](O)[C@H]3CCCN3)cc(-n3cccc3)c2)n1` [1-26, N-((1R,2S)-1-hydroxy-3-phenyl-1-((R)-pyrrolidin-2-yl)propan-2-yl)-3-((R)-2-(4-methyloxazol-2-yl)pyrrolidine-1-carbonyl)-5-(1H-pyrrol-1-yl)benzamide], the Ki was under 250 nM at memapsin 2 [1] and 5000 to 10000 nM at CYP3A4.
As for `Cc1coc([C@H]2CCCN2C(=O)c2cc(C(=O)N[C@@H](Cc3ccccc3)[C@H](O)[C@H]3CCCN3)cc(N(C)S(C)(=O)=O)c2)n1` [1-28, N-((1R,2S)-1-hydroxy-3-phenyl-1-((R)-pyrrolidin-2-yl)propan-2-yl)-3-(N-methylmethylsulfonamido)-5-((R)-2-(4-methyloxazol-2-yl)pyrrolidine-1-carbonyl)benzamide], the Ki is under 250 nM on memapsin 2 [1] and over 10000 nM on CYP3A4.
Turning to `Cc1csc([C@H]2CCCN2C(=O)c2cc(C(=O)N[C@@H](Cc3ccccc3)[C@H](O)[C@H]3CCCN3)cc(N3CCOCC3)c2)n1` [1-33, N-((1R,2S)-1-hydroxy-3-phenyl-1-((R)-pyrrolidin-2-yl)propan-2-yl)-3-((R)-2-(4-methylthiazol-2-yl)pyrrolidine-1-carbonyl)-5-morpholinobenzamide], the figures for the Ki at memapsin 2 [1] and at CYP3A4 were over 750 nM and 5000 to 10000 nM, respectively. Moreover, the IC50 on memapsin 2 [2] was over 1000 nM.
For `COc1cc(C(=O)N[C@@H](Cc2ccccc2)[C@H](O)[C@H]2CCCN2)cc(C(=O)N2CCC[C@@H]2c2nc(C)cs2)c1` [1-34, N-((1R,2S)-1-hydroxy-3-phenyl-1-((R)-pyrrolidin-2-yl)propan-2-yl)-3-methoxy-5-((R)-2-(4-methylthiazol-2-yl)pyrrolidine-1-carbonyl)benzamide], in that order: under 250 nM, 5000 to 10000 nM and over 1000 nM.
For `Cc1csc([C@H]2CCCN2C(=O)c2cc(CF)cc(C(=O)N[C@@H](Cc3ccccc3)[C@H](O)[C@H]3C[C@@H](OCc4ccccc4)CN3)c2)n1` [1-36, N-((1R,2S)-1-((2R,4R)-4-(benzyloxy)pyrrolidin-2-yl)-1-hydroxy-3-phenylpropan-2-yl)-3-(fluoromethyl)-5-((R)-2-(4-methylthiazol-2-yl)pyrrolidine-1-carbonyl)benzamide], the Ki at memapsin 2 [1] was under 250 nM; at CYP3A4 it was over 10000 nM. The IC50 at memapsin 2 [2] is under 500 nM.
Consider `Cc1csc([C@H]2CCCN2C(=O)c2cccc(C(=O)N[C@@H](Cc3ccccc3)[C@H](O)[C@@H]3CCCN3)c2)n1` [1-48, N-((1R,2S)-1-hydroxy-3-phenyl-1-((S)-pyrrolidin-2-yl)propan-2-yl)-3-((R)-2-(4-methylthiazol-2-yl)pyrrolidine-1-carbonyl)benzamide], for which, on memapsin 2 [1], the Ki is over 750 nM. Moreover, the half-maximal inhibitory concentration (IC50) at memapsin 2 [2] is over 1000 nM.
Take `Cc1csc([C@H]2CCCN2C(=O)c2cc(C(=O)N[C@@H](Cc3ccccc3)[C@H](O)[C@H]3CCCN3)cc(C3CC3)c2)n1` [1-50, 3-cyclopropyl-N-((1R,2S)-1-hydroxy-3-phenyl-1-((R)-pyrrolidin-2-yl)propan-2-yl)-5-((R)-2-(4-methylthiazol-2-yl)pyrrolidine-1-carbonyl)benzamide]: at memapsin 2 [1], the Ki was under 250 nM. Also, the concentration for half-maximal inhibition (IC50) at memapsin 2 [2] was over 1000 nM.
Consider `Cc1csc([C@H]2CCCN2C(=O)c2cccc(C(=O)N[C@@H](Cc3ccccc3)[C@H](O)[C@H]3CC[C@@H](C)N3)c2)n1` [1-51, N-((1R,2S)-1-hydroxy-1-((2R,5R)-5-methylpyrrolidin-2-yl)-3-phenylpropan-2-yl)-3-((R)-2-(4-methylthiazol-2-yl)pyrrolidine-1-carbonyl)benzamide], for which, on memapsin 2 [1], the Ki was over 750 nM. Also, the IC50 on memapsin 2 [2] was over 1000 nM.
As to `Cc1csc([C@H]2CCCN2C(=O)c2cc(C(=O)N[C@@H](Cc3ccccc3)[C@H](O)[C@H]3C[C@@H](OCc4ccccc4)CN3)cc(-c3ncco3)c2)n1` [1-52, N-((1R,2S)-1-((2R,4R)-4-(benzyloxy)pyrrolidin-2-yl)-1-hydroxy-3-phenylpropan-2-yl)-3-((R)-2-(4-methylthiazol-2-yl)pyrrolidine-1-carbonyl)-5-(oxazol-2-yl)benzamide], the results for the Ki on memapsin 2 [1] and on CYP3A4 were under 250 nM and 1000 to 5000 nM, respectively. For the same compound, the IC50 at memapsin 2 [2] was under 500 nM.
For `Cc1csc([C@H]2CCCN2C(=O)c2cccc(C(=O)N[C@@H](Cc3cccc(F)c3)[C@H](O)[C@H]3CCCN3)c2)n1` [1-53, N-((1R,2S)-3-(3-fluorophenyl)-1-hydroxy-1-((R)-pyrrolidin-2-yl)propan-2-yl)-3-((R)-2-(4-methylthiazol-2-yl)pyrrolidine-1-carbonyl)benzamide], the Ki at memapsin 2 [1] is under 250 nM. In addition, the IC50 at memapsin 2 [2] lay within 500 to 1000 nM.
For the compound `Cc1cc(C(=O)N[C@@H](Cc2ccccc2)[C@H](O)CNCc2cncc(C(C)C)c2)cc(C(=O)N2CCC[C@@H]2c2nc(C)cs2)c1` [2-8, N-((2S,3R)-3-hydroxy-4-((5-isopropylpyridin-3-yl)methylamino)-1-phenylbutan-2-yl)-3-methyl-5-((R)-2-(4-methylthiazol-2-yl)pyrrolidine-1-carbonyl)benzamide, reference compound], the Ki on memapsin 2 [1] is under 250 nM; on CYP3A4, under 1000 nM. In addition, the IC50 at memapsin 2 [2] was under 500 nM.
For `Cc1csc(CN(C(=O)c2cccc(C(=O)N[C@@H](Cc3ccccc3)[C@H](O)CNCc3cccc(C(F)(F)F)c3)c2)C2CC2)n1` [2-9, N1-cyclopropyl-N3-((2S,3R)-3-hydroxy-1-phenyl-4-(3-(trifluoromethyl)benzylamino)butan-2-yl)-N1-((4-methylthiazol-2-yl)methyl)isophthalamide, reference compound], in that order: under 250 nM, under 1000 nM and under 500 nM.
For `Cc1csc([C@H]2CCCN2C(=O)c2cccc(C(=O)N[C@@H](Cc3ccccc3)[C@H](O)CNCc3cccc(C(C)(C)C)c3)c2)n1` [2-10, N-((2S,3R)-4-(3-tert-butylbenzylamino)-3-hydroxy-1-phenylbutan-2-yl)-3-((R)-2-(4-methylthiazol-2-yl)pyrrolidine-1-carbonyl)benzamide, reference compound], in that order: under 250 nM, under 1000 nM and under 500 nM.

For the origin of these results see patent US20120214802A1, “PYRROLIDINE COMPOUNDS WHICH INHIBIT BETA-SECRETASE ACTIVITY AND METHODS OF USE THEREOF” (priority 2009, published 2012).
